# Data taken from EP0871441B1, “DFMO AND TAXOL FOR THE TREATMENT OR PREVENTION OF BREAST CANCER” (Ilex Oncology, Inc., priority 1996, dated 1998).
# Several values for one entry are separate records, joined by “and”; a condition that tells them apart may be missing. Identical values can stand only once.
# Tests used:
# MCF-7 cells = conditions: cited from earlier work
# [1] = system: MDA-MB-231 human breast tumor; assay: Tumor growth inhibition of MDA-MB-231 breast tumor implanted s.c. in nude mice; format: in vivo; conditions: for % Tumor Growth Inhibition: with respect to control
# Description: The MDA-MB-23 1 human breast tumor cell line is estrogen independent. The cell line cannot be maintained in vitro and so was maintained in vivo in host nude mice. The tumor growth inhibition studies were conducted by transplanting MDA-MB-231 tumor cells from the host nude mouse to the subject and control nude mice of the study. The MDA-MB-231 cell line can be obtained from the American Type Culture Collection as ATCC HTB 26. Nude mice are implanted s.c. by trocar with fragments of MDA-MB-231 human breast tumor cells harvested from s.c. growing tumors in nude mice hosts. When tumors are approximately 5 mm x 5 mm in size (usually about ten to twenty days after inoculation), the animals are pair-matched into treatment and control groups. Each group contains 10 tumored mice, each of which is ear-tagged and followed individually throughout the experiment. The administration of drugs or vehicle begins the day the animals are pair-matched (Day 1). The doses, route of drug administration and schedule are selected as appropriate for the study in question. If the MTD dose of an agent is not known, it is determined in an initial dosing experiment in non-tumored mice. The experiment is usually terminated when control tumors reach a size of 1 g or 2 g for the tumor models. Mice are weighed twice weekly, and tumor measurements are taken by calipers twice weekly, starting on day 1. These tumor measurements are converted to mg tumor weight by a well-known formula, and from these calculated tumor weights, the termination date can be determined. Upon termination, all mice are weighed, sacrificed, and their tumors excised. Tumors are weighed, and the mean tumor weight per group is calculated. In this model, the mean treated tumor weight/mean control tumor weight x 100% (T/C) is subtracted from 100% to give the tumor growth inhibition (TGI) for each group. The final weight of a given tumor is subtracted from its own weight at the start of treatment on day 1. This difference divided by the initial tumor weight is the % shrinkage. A mean % tumor shrinkage can be calculated from data from the mice in a group that experienced regressions. If the tumor completely disappears in a mouse, this is considered a complete regression or complete tumor shrinkage. If desired, mice with partial or total tumor regressions can be kept alive past the termination date to see whether they live to become long term, tumor-free survivors. Statistics are performed on the data using primarily the log rank-value test. In the above procedure, a reduction in the growth, number, size, metastasis and/or reoccurrence of tumor in the animal is deemed a positive response.
# MCF-7 human breast tumor = assay: Tumor growth inhibition of MCF-7 mammary carcinoma implanted s.c. in ovariectomized nude mice; format: in vivo
# Description: Female ovariectomized nude mice are implanted s.c. by trocar with 21 day release 0.25 mg estrogen pellets. The following day the mice are implanted s.c. by trocar fragments of MCF-7 mammary carcinomas harvested from s.c. growing MCF-7 tumors in nude mice hosts. When tumors are approximately 5 mm x 5 mm in size (about twenty days after inoculation), the animals are pair-matched into treatment and control groups, and the estrogen pellets removed. Each group contains 10 tumored mice, each of which is ear-tagged and followed individually throughout the experiment. The administration of drugs or vehicle begins the day the animals are pair-matched (Day 1). The doses, route of drug administration and schedule are selected as appropriate for the study in question. If the MTD dose of an agent is not known, it is determined in an initial dosing experiment in non-tumored mice. Mice are weighed twice weekly, and tumor measurements are taken by calipers twice weekly, starting on Day 1. These tumor measurements are converted to mg tumor weight by a well-known formula, L^2xW/2. The experiment is terminated when control tumors reach a size of 1 gram. […] Tumors are weighed and the mean tumor weight per group is calculated. […] A mean % tumor shrinkage can be calculated from data from the mice in a group that experienced tumor regressions. […]
# MCF-7 = conditions: MCF-7, estrogen-responsive; cited from earlier work
# T-47D = conditions: estrogen-responsive; cited from earlier work
# BT-20 = conditions: BT-20, estrogen-unresponsive; cited from earlier work
# ODC = biological target: T1, ODC (Homo sapiens, UniProt P11926); conditions: DFMO 5 mM, MCF-7 cells; cited from earlier work
# T1 construct: endogenous in cells; host or cells: MCF-7 cells, estrogen-treated
# T1 sequence (P11926 1-461): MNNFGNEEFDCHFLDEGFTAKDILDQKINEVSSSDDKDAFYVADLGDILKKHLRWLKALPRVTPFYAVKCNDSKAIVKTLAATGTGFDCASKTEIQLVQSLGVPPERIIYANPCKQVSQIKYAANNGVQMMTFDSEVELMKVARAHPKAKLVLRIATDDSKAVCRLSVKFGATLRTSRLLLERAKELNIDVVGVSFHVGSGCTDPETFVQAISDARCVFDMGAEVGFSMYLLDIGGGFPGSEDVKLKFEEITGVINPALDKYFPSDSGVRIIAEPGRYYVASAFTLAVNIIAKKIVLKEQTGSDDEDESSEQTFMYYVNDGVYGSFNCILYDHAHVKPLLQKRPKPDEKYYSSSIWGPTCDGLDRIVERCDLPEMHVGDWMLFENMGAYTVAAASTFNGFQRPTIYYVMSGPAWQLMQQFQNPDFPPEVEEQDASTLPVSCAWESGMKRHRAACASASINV
# [2] = DFMO alone 0.5% in drinking water, p.o., ad libitum
# [3] = DFMO alone 3% in drinking water, p.o., ad libitum
# [4] = taxol alone 20 mg/kg, i.p., qdx5
molecule,measurement,setting,value
4-hydroxytamoxifen,cell growth reduced to,"MCF-7 cells; 0.1µM 4-hydroxytamoxifen, remaining growth",72%
"NCCC[C@](N)(C(=O)O)C(F)F (racemic) [DFMO, alpha-difluoromethylornithine]",Final Tumor Wt. (Mean±SEM),[1]; [2],1276.3±398.6
same,% Tumor Growth Inhibition,[1]; [2],19% and 19.2%
same,Final Tumor Wt. (Mean±SEM),[1]; [3],782.7±111.4
same,% Tumor Growth Inhibition,[1]; [3],52% and 51.8%
same,tumor growth inhibition (TGI) with respect to control,"MCF-7 human breast tumor; DFMO alone 0.5% wt in drinking water, p.o., ad libitum",44%
same,"proliferation of MCF-7 cells, % of the controls","MCF-7 cells; 0.1 mM DFMO, remaining proliferation",75%
same,inhibition of proliferation,MCF-7,80%
same,inhibition of proliferation,T-47D,80%
same,inhibition of proliferation,BT-20,50%
same,ODC activity,ODC,fully inhibited
CC(=O)O[C@H]1C(=O)[C@@]2(C)[C@H]([C@H](OC(=O)c3ccccc3)[C@]3(O)C[C@H](OC(=O)[C@H](O)[C@@H](NC(=O)c4ccccc4)c4ccccc4)C(C)=C1C3(C)C)[C@]1(OC(C)=O)CO[C@@H]1C[C@@H]2O [Taxol],Final Tumor Wt. (Mean±SEM),[1]; [4],301.6±72.9
same,% Tumor Growth Inhibition,[1]; [4],83.7%
same,% Tumor Growth Inhibition,"[1]; taxol alone 20 mg/kg, i.p., qdx5, listed as taxol",84%
same,tumor growth inhibition (TGI) with respect to control,"MCF-7 human breast tumor; taxol alone 16 mg/kg, i.p., qdx5",28%
